Results as given in patent US12622909B2, “Allosteric EGFR inhibitors and methods of use thereof” (Dana-Farber Cancer Institute, Inc., priority 2019, dated 2026).
Read-outs that look alike come from different tables or passages of the source.

How the values were obtained:
[1] = target: EGFR L858R/T790M (Homo sapiens, UniProt P00533, L858R/T790M); test: HTRF-based EGFR biochemical assay (L858R/T790M); details: 100 μM ATP, enzyme 0.02 nM
Description: (§1) EGFR biochemical activity measurements were carried out using the homogeneous time-resolved fluorescence (HTRF) assay (Cisbio). Inhibitors and DMSO normalizations were first dispensed to empty black low-volume 384-well plates (Corning) with D300 digital liquid dispenser (HP). All reactions were carried out at room temperature and solutions were added to plates with a Multidrop Combi Reagent Dispenser (ThermoFisher). The reaction mixture (10 μL final volume) contained 1 μM tyrosine kinase peptide-biotin substrate and mutant EGFR in a reaction buffer (50 mM HEPES pH 7.0, 5 mM MgCl2, 1 mM MnCl2, 0.01% BSA, 2 mM TCEP, 0.1 mM NaVO4). […] Enzyme reaction solution (2× concentrations, 5 μL) was added to 384-well plates containing compounds and incubated for 30 mins. Enzyme reactions were initiated with the addition of 5 μL of ATP to a final concentration of 100 μM and reacted for 20 mins.

[2] = target: EGFR L858R (Homo sapiens, UniProt P00533, L858R); test: HTRF-based EGFR biochemical assay (L858R); details: 100 μM ATP, enzyme 0.1 nM
Chain of EGFR L858R (P00533 25-1210 L858R): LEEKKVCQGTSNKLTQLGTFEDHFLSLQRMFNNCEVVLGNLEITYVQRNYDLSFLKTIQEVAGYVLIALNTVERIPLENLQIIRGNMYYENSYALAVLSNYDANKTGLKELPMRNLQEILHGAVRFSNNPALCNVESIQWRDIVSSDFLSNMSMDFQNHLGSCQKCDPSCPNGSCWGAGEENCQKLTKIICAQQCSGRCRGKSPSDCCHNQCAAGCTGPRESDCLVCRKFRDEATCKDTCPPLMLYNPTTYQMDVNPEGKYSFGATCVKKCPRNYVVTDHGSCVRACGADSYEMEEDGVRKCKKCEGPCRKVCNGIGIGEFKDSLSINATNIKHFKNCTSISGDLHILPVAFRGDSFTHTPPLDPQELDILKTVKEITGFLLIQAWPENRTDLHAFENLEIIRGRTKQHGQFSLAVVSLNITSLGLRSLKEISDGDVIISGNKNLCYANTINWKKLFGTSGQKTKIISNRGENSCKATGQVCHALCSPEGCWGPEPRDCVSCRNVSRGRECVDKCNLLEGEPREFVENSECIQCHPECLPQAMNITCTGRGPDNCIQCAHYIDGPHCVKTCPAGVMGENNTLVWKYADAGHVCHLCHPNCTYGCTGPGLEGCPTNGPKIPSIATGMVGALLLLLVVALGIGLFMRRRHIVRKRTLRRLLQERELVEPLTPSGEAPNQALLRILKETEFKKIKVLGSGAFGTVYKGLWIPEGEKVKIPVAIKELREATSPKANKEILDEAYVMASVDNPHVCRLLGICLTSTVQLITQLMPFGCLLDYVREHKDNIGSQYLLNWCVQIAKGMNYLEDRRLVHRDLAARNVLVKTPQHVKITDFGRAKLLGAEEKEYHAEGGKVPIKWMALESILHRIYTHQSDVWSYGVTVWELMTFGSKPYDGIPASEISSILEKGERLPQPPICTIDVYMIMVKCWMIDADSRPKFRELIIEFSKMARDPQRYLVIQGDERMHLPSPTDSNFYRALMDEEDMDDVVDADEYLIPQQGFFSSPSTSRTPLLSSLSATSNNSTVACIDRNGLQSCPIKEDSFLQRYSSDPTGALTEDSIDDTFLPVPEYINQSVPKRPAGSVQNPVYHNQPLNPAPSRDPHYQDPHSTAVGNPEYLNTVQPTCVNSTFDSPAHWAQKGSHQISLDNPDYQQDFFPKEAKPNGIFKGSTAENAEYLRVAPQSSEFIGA
Description: as §1, with “20 mins. Reactions were quenched with the addition of 10 μL of phospho-tyrosine antibody-Europium(III) cryptate (1-to-180 volume ratio) and Streptavidin-XL665 (46.7 nM) in EDTA-containing detection buffer, then incubated at room temperature for 1 hour, and read with a PHERAstar plate reader (excitation=337 nm, emission=620 nm and 665 nm).” for “20 mins.”

[3] = target: EGFR L858R/T790M mutant Ba/F3 cells (Homo sapiens, UniProt P00533, T790M/L858R, cells depend on it); test: Ba/F3 cell proliferation (Cell Titer Glo); type: cell-based, murine; details: 72 hours
Chain of EGFR L858R/T790M mutant Ba/F3 cells (P00533 whole entry T790M/L858R): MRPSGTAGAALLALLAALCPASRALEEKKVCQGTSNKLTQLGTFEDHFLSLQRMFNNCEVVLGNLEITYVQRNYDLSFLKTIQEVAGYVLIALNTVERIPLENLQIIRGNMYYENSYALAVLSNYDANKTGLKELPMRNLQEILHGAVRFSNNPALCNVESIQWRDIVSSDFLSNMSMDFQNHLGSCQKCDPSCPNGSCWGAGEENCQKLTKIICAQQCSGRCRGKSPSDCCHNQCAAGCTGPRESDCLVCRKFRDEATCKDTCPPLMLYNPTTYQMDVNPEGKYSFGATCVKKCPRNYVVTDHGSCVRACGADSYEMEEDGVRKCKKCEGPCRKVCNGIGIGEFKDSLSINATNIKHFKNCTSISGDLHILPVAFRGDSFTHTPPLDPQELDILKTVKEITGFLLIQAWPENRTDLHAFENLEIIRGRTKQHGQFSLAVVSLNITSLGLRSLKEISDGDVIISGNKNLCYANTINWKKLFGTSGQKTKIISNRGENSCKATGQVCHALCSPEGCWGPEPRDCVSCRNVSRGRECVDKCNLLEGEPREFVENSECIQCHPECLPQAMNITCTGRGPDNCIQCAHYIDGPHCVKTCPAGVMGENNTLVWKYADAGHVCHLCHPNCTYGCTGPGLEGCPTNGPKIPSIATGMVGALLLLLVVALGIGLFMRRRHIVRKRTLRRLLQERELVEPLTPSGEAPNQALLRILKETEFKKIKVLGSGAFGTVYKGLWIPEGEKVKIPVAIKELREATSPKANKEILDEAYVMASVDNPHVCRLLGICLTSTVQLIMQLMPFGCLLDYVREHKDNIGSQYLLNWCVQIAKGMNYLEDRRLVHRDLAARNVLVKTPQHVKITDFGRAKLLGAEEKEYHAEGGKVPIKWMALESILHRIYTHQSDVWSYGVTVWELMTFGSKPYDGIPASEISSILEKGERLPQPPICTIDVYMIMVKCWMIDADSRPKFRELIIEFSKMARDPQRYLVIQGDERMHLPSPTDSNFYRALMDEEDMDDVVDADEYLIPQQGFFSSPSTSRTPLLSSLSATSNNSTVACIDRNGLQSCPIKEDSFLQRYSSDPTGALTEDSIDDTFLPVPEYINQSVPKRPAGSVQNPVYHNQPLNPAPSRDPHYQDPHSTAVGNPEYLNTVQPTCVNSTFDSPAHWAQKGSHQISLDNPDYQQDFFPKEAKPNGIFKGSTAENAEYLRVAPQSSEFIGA
Source text: All cell lines were maintained in RPMI 1640 (Cellgro; Mediatech Inc., Herndon, CA) supplemented with 10% FBS, 100 units/mL penicillin, 100 units/mL streptomycin. The EGFR I941R mutation was introduced via site directed mutagenesis using the Quick Change Site-Directed Mutagenesis kit (Stratagene; La Jolla, CA) according to the manufacturer's instructions. All constructs were confirmed by DNA sequencing. The constructs were shuttled into the retroviral vector JP1540 using the Cre-recombination system (Agilent Technologies, Santa Clara, CA). Ba/F3 cells were then infected with retrovirus per standard protocols, as described previously (Zhou, et al, Nature 2009). Stable clones were obtained by selection in puromycin (2 μg/ml).
Growth and inhibition of growth was assessed by the Cell Titer Glo assay (Promega, Madison, WI) and was performed according to the manufacturer's instructions. The Cell Titer Glo assay is a luminescence-based method used to determine the number of viable cells based on quantitation of the ATP present, which is directly proportional to the amount of metabolically active cells present. […] All experimental points were set up in triplicates in 384-well plates and all experiments were repeated at least three times. […] The curves were fitted using a non-linear regression model with a sigmoidal dose response.

[4] = in combination with 1 μg/ml cetuximab, read-out: Cell IC50 BaF3 L858R/T790M compound + cetuximab
[5] = single agent, read-out: Cell IC50 EGFR BaF3 L858R/T790M

Chain of EGFR L858R/T790M (P00533 25-1210 T790M/L858R): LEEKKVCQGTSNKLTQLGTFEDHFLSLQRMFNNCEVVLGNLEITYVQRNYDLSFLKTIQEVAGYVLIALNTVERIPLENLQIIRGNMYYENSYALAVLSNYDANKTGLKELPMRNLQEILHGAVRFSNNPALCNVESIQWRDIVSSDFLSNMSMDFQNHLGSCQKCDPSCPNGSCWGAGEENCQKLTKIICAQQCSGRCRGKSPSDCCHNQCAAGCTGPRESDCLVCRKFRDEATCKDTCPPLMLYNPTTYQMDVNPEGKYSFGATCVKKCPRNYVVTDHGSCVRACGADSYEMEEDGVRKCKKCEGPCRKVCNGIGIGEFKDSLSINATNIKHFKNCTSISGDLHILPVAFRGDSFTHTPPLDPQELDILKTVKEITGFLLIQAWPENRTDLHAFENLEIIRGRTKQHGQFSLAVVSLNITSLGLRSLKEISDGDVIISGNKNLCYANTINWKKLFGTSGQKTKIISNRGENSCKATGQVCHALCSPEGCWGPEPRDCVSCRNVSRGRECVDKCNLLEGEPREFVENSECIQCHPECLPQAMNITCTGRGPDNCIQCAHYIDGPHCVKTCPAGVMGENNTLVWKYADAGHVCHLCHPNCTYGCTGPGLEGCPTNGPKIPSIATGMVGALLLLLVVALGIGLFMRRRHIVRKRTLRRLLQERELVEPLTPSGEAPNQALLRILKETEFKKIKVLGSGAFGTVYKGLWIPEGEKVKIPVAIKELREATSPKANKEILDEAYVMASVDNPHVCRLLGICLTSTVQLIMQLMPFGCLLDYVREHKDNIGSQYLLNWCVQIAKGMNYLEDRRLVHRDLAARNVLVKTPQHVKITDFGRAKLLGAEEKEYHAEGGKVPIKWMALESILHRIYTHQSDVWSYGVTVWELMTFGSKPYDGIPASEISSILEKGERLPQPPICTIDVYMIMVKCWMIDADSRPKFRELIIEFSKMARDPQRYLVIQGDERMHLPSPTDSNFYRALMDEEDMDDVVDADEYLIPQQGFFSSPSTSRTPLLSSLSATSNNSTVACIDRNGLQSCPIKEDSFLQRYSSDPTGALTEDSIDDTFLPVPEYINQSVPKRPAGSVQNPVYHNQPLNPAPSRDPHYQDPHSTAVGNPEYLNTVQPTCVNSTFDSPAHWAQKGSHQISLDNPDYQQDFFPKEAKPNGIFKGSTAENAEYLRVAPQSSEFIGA

| SMILES | IC50 [1] [nM] | IC50 [2] [nM] | GI50 [3, 4] [nM] | GI50 [3, 5] [nM] |
| --- | --- | --- | --- | --- |
| CN1CCC(c2ccc(-c3ccc4ncn(C(C(=O)Nc5nccs5)c5ccccc5)c(=O)c4c3)cc2)CC1 (centres unmarked) [Compound 014, 2-(6-(4-(1-Methylpiperidin-4-yl)-phenyl)-4-oxoquinazolin-3(4H)-yl)-2-phenyl-N-(thiazol-2-yl)acetamide] | 0.2 | 3 | 5 | 510 |
| CN1CCN(c2ccc(-c3ccc4ncn(C(C(=O)Nc5nccs5)c5ccccc5)c(=O)c4c3)cc2)CC1 (centres unmarked) [Compound 015, 2-(6-(4-(4-Methylpiperazin-1-yl)-phenyl)-4-oxoquinazolin-3(4H)-yl)-2-phenyl-N-(thiazol-2-yl)acetamide] | 1 | 7 | 20 | 2320 |
| CN1CCC(c2ccc(-c3ccc4c(=O)n(C(C(=O)Nc5nccs5)c5ccccc5)cnc4c3)cc2)CC1 (centres unmarked) [Compound 012, 2-(7-(4-(1-Methylpiperidin-4-yl)phenyl)-4-oxoquinazolin-3(4H)-yl)-2-phenyl-N-(thiazol-2-yl)acetamide] | 6 | 11 | 200 | 2150 |
| CN1CCN(c2ccc(-c3ccc4c(F)cn(C(C(=O)Nc5nccs5)c5ccccc5)c(=O)c4c3)cc2)CC1 (centres unmarked) [Compound 037, 2-(4-Fluoro-7-(4-(4-methylpiperazin-1-yl)phenyl)-1-oxoisoquinolin-2(1H)-yl)-2-phenyl-N-(thiazol-2-yl)-acetamide] | 1 | 8 | 22 | 2650 |
| O=C(Nc1nccs1)C(c1cccc(F)c1)n1ccc2ccc(Br)cc2c1=O (centres unmarked) [Compound 007, 2-(7-Bromo-1-oxoisoquinolin-2(1H)-yl)-2-(3-fluorophenyl)-N-(thiazol-2-yl)acetamide] | 48 | > 1000 | 1500 | > 10000 |
| CN1CCC(c2ccc(-c3ccc4ccn(C(C(=O)Nc5nccs5)c5cccc(F)c5)c(=O)c4c3)cc2)CC1 (centres unmarked) [Compound 024, 2-(3-Fluorophenyl)-2-(7-(4-(1-methylpiperidin-4-yl)phenyl)-1-oxoisoquinolin-2(1H)-yl)-N-(thiazol-2-yl)-acetamide] | 1 | 7 | 90 | 1770 |
| CN1CCC(c2ccc(-c3cc(F)c4ncn(C(C(=O)Nc5nccs5)c5ccccc5)c(=O)c4c3)cc2)CC1 (centres unmarked) [Compound 060, 2-(8-Fluoro-6-(4-(1-methylpiperidin-4-yl)phenyl)-4-oxoquinazolin-3-(4H)-yl)-2-phenyl-N-(thiazol-2-yl)-acetamide] | 0.6 | 4 | 9 | 710 |
| CN1CCC(c2ccc(-c3ccc4ccn(C(C(=O)Nc5nccs5)c5ccccc5)c(=O)c4c3)cc2)CC1 (centres unmarked) [Compound 018, 2-(7-(4-(1-Methylpiperidin-4-yl)-phenyl)-1-oxoisoquinolin-2(1H)-yl)-2-phenyl-N-(thiazol-2-yl)acetamide] | 2 | 12 | 72 | 1520 |
| O=C(Nc1ccccn1)C(c1cccc(F)c1)n1cnc2ccc(Br)cc2c1=O (centres unmarked) [Compound 034, 2-(6-Bromo-4-oxoquinazolin-3(4H)-yl)-2-(3-fluorophenyl)-N-(pyridin-2-yl)acetamide] | 18 | > 1000 | 1800 | > 10000 |
| CN1CCC(c2ccc(-c3ccc4c(=O)n(C(C(=O)Nc5nccs5)c5cccc(F)c5)ccc4c3)cc2)CC1 (centres unmarked) [Compound 025, 2-(3-Fluorophenyl)-2-(6-(4-(1-methyl-piperidin-4-yl)phenyl)-1-oxo-isoquinolin-2(1H)-yl)-N-(thiazol-2-yl)-acetamide] | 3 | 5 | 20 | 900 |
| O=C(Nc1nccs1)C(c1cccc(F)c1)n1cnc2cc(Br)ccc2c1=O (centres unmarked) [Compound 010, 2-(7-Bromo-4-oxoquinazolin-3(4H)-yl)-2-(3-fluorophenyl)-N-(thiazol-2-yl)acetamide] | 54 | 1840 | > 10000 | > 10000 |
| O=C(Nc1nccs1)C(c1ccccc1)n1cnc2ccc(Br)cc2c1=O (centres unmarked) [Compound 002, 2-(6-Bromo-4-oxoquinazolin-3(4H)-yl)-2-phenyl-N-(thiazol-2-yl)-acetamide] | 35 | 275 | 980 | > 10000 |

Continued, values first:

| IC50 [1] [nM] | IC50 [2] [nM] | GI50 [3, 4] [nM] | GI50 [3, 5] [nM] | SMILES |
| --- | --- | --- | --- | --- |
| 0.1 | 0.4 | 48 | 860 | CN1CCC(c2ccc(-c3ccc4ncn(C(C(=O)Nc5nccs5)c5cc(F)ccc5O)c(=O)c4n3)cc2)CC1 (centres unmarked) [Compound 084, 2-(5-Fluoro-2-hydroxyphenyl)-2-(6-(4-(1-methylpiperidin-4-yl)phenyl)-4-oxopyrido[3,2-d]pyrimidin-3(4H)-yl)-N-(thiazol-2-yl)acetamide] |
| 0.1 | 1 | 7 | 1030 | CN1CCC(c2ccc(-c3ccc4ncn(C(C(=O)Nc5nccs5)c5ccccc5F)c(=O)c4c3F)cc2)CC1 (centres unmarked) [Compound 075, 2-(5-Fluoro-6-(4-(1-methylpiperidin-4-yl)phenyl)-4-oxoquinazolin-3-(4H)-yl)-2-(2-fluorophenyl)-N-(thiazol-2-yl)acetamide] |
| 42 | 91 | 410 | 2480 | Cc1nc2cc(-c3ccc(C4CCN(C)CC4)cc3)ccc2c(=O)n1C(C(=O)Nc1nccs1)c1ccccc1 (centres unmarked) [Compound 054, 2-(2-Methyl-7-(4-(1-methylpiperidin-4-yl)phenyl)-4-oxoquinazolin-3(4H)-yl)-2-phenyl-N-(thiazol-2-yl)acetamide] |
| 1 | 12 | 55 | 1600 | CN1CCN(c2ccc(-c3ccc4ncn(C(C(=O)Nc5nccs5)c5ccccc5)c(=O)c4n3)cc2)CC1 (centres unmarked) [Compound 072, 2-(6-(4-(4-Methylpiperazin-1-yl)-phenyl)-4-oxopyrido[3,2-d]-pyrimidin-3(4H)-yl)-2-phenyl-N-(thiazol-2-yl)acetamide] |
| 0.2 | 1 | 5 | 550 | CN1CCC(c2ccc(-c3ccc4ncn(C(C(=O)Nc5nccs5)c5cccc(F)c5)c(=O)c4c3F)cc2)CC1 (centres unmarked) [Compound 070, 2-(5-Fluoro-6-(4-(1-methylpiperidin-4-yl)phenyl)-4-oxoquinazolin-3-(4H)-yl)-2-(3-fluorophenyl)-N-(thiazol-2-yl)acetamide] |
| 0.4 | 2 | 33 | 3160 | CN1CCC(c2ccc(-c3ccc4ncn(C(C(=O)Nc5nccs5)c5c(O)cccc5F)c(=O)c4c3)cc2)CC1 (centres unmarked) [Compound 086, 2-(2-Fluoro-6-hydroxyphenyl)-2-(6-(4-(1-methylpiperidin-4-yl)phenyl)-4-oxoquinazolin-3(4H)-yl)-N-(thiazol-2-yl)acetamide] |
| – | – | 28 | 4520 | O=C(Nc1nccs1)C(c1ccccc1)n1cnc2ccc(C#Cc3cccnc3)cc2c1=O (centres unmarked) [Compound 061, 2-(4-Oxo-6-(pyridin-3-ylethynyl)quinazolin-3(4H)-yl)-2-phenyl-N-(thiazol-2-yl)acetamide] |
